This is an account of results in patent publication US6130220A, “Sulfamide-metalloprotease inhibitors” (Syntex (USA) Inc., priority 1999, dated 2000).

Assay [1] concerns collagen matrix of cartilage explants. Description: Degradation of cartilage plug in vitro (hydroxyproline release). The conditions noted are these: bovine knee cartilage explants, IL-1-α 20 ng/ml, compounds at 10 to 300 nm, 21 days, hydroxyproline content vs control. It counts as cell-based. The method, then: The ability of the compounds of this invention to inhibit the degradation of the collagen matrix (as judged by release of hydroxyproline) was determined by the cartilage plug degradation assay in vitro by following a slight modification of the method described in Spirito, S., Doughty, E., et al., "Metalloproteinase inhibitors halt collagen breakdown in IL-1 induced bovine nasal cartilage cultures" Inflamm. Res., 44, Supp. 2: S131-S132, (1995).
Cartilage explants prepared from freshly sacrificed bovine knee joints were added to the culture medium (Dubelco's modified eagle medium, Gibco #21063-001, Gibco BRL Products, Gaithersburg, Md.), without phenol red, but with HEPES, and L-glutamine and fungizone 2.5 μglml, gentamicin 50 μg/ml, penicillin 100 U/ml, and streptomycin 100 μg/ml). The cultures were stimulated with IL-1-α at a final concentration of 20 ng/ml. Compounds of Formula (I), were added at concentrations between 10 and 300 nm in DMSO. The control samples contained only IL-1-α. The cultures were incubated at 37° C. in an atmosphere of air with 6% CO2 for 21 days during which time the medium was changed twice/week. The cartilage plugs were removed, hydrolyzed and the hydroxyproline content was determined. The MMP inhibitory activity of test materials is the measure of the hydroxyproline content in the test group relative to the vehicle treated group (control group).

For assay [2], the system named is collagen matrix of bovine nasal cartilage plugs. Kind of assay: Cartilage plug degradation in vivo (cartilage plug implant assay). To be noted: female Lewis rats, implanted bovine nasal cartilage plugs, hydroxyproline content vs vehicle, 8 or 9 days.
The target in a further assay is Collagenase-III. Kind of assay: MMP enzymatic assay, hydrolysis of MCA-Pro-Leu-Gly-Leu-DPA-Ala-Arg-NH2, Collagenase-III. To be noted: 37° C., pH 7.5, 2.5% DMSO. It counts as biochemical. The method, then:
The propeptide and catalytic domain portion of human collagenase-3 was expressed in E. Coli as an N-terminal fusion protein with ubiquitin. After purification, the catalytic domain was released by treatment with 1 mM APMA for 1 hour at 37° C., and then purified by zinc chelate chromatography.
Rat collagenase-3 was purified in active form from the culture media of uterine smooth muscle cells as described in Roswit, W. T. et al., Arch. Biochem. Biophys., 225, 285-295 (1983).
The matrix metalloprotease inhibitory activity of compounds of this invention in vitro was determined based on the hydrolysis of MCA-Pro-Leu-Gly-Leu-DPA-Ala-Arg-NH2 (Bachem, Inc.) at 37° C. as described in Knight, C. G., et al., FEBS Lett., 296, 263-266 (1992).
The matrix metalloprotease enzyme was diluted with assay buffer (50 mM Tricine pH 7.5, 200 mM NaCl, 10 mM CaCl2, and 0.005% Brij-35) containing 10 μmole of above substrate dissolved in DMSO. Compounds of the invention dissolved in DMSO or only DMSO (control samples) were added such that the final DMSO concentration in all assays was 2.5%. The fluorescence changes were monitored with a Perkin-Elmer LS-50B flourimeter using an excitation wavelength of 328 nm and an emission wavelength of 393 nm.

Assay [3] has as its system TNF-α release from Human Monomac 6 cells. Description: Inhibition of TNF release in vitro, Monomac 6 cells, LPS/PMA. The format is cell-based. To be noted: 2 h; for inhibition at 2 µM: MONO-MAC-6, 2 μM, read-out: TNF-α % inhibition, Conc. 2 μM; for inhibition at 10 µM: MONO-MAC-6, 10 μM, read-out: TNF-α % inhibition, Conc. 10 μM. Here is the method:
The activity of compounds of this invention in inhibiting the TNF release was determined, using the a minor modification of the method described in Pradines-Figueres, A. and Raetz, C. R. H., J. Biol. Chem., 267 (32), 23261, (1992).
Human Monomac 6 cells (Ziegler-Heitbrock, H. W. L., et al., Int. J. Cancer, 41, 456, (1988)) were cultured at 37° C. in RPMI 1640 medium containing 10% fetal calf serum to a density of 1×10^5 cells/ml. 0.23 ml of these cells were placed in each well of a tissue culture plate and the cells were incubated for 15 min. The test compounds were dissolved in above mentioned medium and added and the incubation was continued for an additional 15 min. 10 μl of an lipopolysaccharide/phorbol-12-myristate-13-acetate (LPS/PMA) mixture was added such that the final concentration of lipopolysaccharide was 10 ng/ml and the final concentration of phorbol-12-myristate-13-acetate was 30 ng/ml. The cells were incubated for 2 h after which the plate was centrifuged and the medium was removed and analyzed for TNF content. The analysis was performed using a TNF Quantikine® Inmunoassay (R & D Systems, Minneapolis, Minn. 55413) by following the manufacturer's protocol.
The TNF-α inhibitory activity of test materials, i.e., the measure of the TNF-α content in the test group relative to the vehicle treated group (control group) was: […]

A further assay relates to TNF-α. Kind of assay: Inhibition of LPS induced TNF-α production in mice in vivo. The conditions noted are these: s.c. compound, LPS 50 μg/mouse i.p. 1 h later, blood after 1.5 h. Here is the method: The activity of compounds of this invention in inhibiting the TNF-α release was determined, using a minor modification of the methods described in Zanetti, G.; Heumann, D., et. al., "Cytokine production after intravenous or peritoneal Gram-negative bacterial challenge in mice" J. Immunol., 148, 1890, (1992) and Sekut, L., Menius, J. A., et. al., "Evaluation if the significance of elevated levels of systemic and localized tumor necrosis factor in different animal models of inflammation" J. Lab. Clin. Med., 124, 813, (1994).
Female Balbic mice were anesthetized and injected subcutaneously with the test compounds dissolved in CMC vehicle or hydroxypropylmethyl cellulose based vehicle. Control animals received only the vehicle. After 1 h, LPS (50 μg/mouse, Sigma #13129, Sigma Chemical Co., St. Louis, Mo.) was injected intraperitoneally. After 1.5 h, blood was collected from the retro-rbital plexus region of the animals in a miicrotainer serum separator tube (Becton Dickinson, Cat. No. #5960, Becton Dickinson & Co., Franklin Lakes, N.J.). The sera was separated and the amount of TNF-α was determined using the EM-TNFA® kit (Endogen, Woburn, Mass.) by following the manufacturer's protocol.

A further assay has as its target T1, Collagenase-I (Homo sapiens, UniProt P03956).
T1 construct: the collagenase-1 catalytic domain was released by treatment with 1 mM of aninophenylmercuric acetate; ubiquitin (cleaved yes); made in house; host or cells: E. coli
T1 sequence (P03956 100-269 limits assumed): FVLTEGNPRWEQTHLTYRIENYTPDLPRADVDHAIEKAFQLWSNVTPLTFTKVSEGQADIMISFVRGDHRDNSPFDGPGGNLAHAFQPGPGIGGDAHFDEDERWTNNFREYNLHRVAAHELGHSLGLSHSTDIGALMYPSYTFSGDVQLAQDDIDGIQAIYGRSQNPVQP
Kind of assay: MMP enzymatic assay, hydrolysis of MCA-Pro-Leu-Gly-Leu-DPA-Ala-Arg-NH2, Collagenase-I. It counts as biochemical.

Where two headings read alike, the source gives them in different places. Where only a bound is given, the exact number is not on record here.

`CC(C)[C@@H](NS(=O)(=O)N1CCC(Oc2ccc(Cl)cn2)CC1)C(=O)NO` [compound 100, N-hydroxy-2-(R)-{[4-(5-chloropyridin-2-yloxy)piperidine-1-sulfonyl]amino}-3-methybutyramide]: the figures for the “% protection” value in assay [1] and in assay [2] were 68% and 40%, respectively.

On Collagenase-III, `CN(C)C(=O)N1CCN(S(=O)(=O)N2CCC(c3c[nH]c4c(F)c(F)c(F)c(F)c34)CC2)[C@@H](C(=O)NO)C1` [compound 309, N-hydroxy-4-(N,N-dimethylaminocarbonyl)-1-[4-(4,5,6,7-tetrafluoroindol-3-yl)piperidine-1-sulfonyl]piperazine-2-(R)-carboxamide] came in with an IC50 of 500 nM. In assay [3], the inhibition at 2 µM worked out at 94%. The compound further registered a TNF-α % inhibition with TNF-α of 46%.

Compound `N#Cc1ccc2[nH]cc(C3CCN(S(=O)(=O)N4CCCC[C@@H]4C(=O)NO)CC3)c2c1` [compound 294, N-hydroxy-1-[4-(5-cyanoindol-3-yl)piperidine-1-sulfonyl]piperidine-2-(R)-carboxamide] registered an IC50 against Collagenase-III of 340 nM. The inhibition at 2 µM in assay [3] amounted to 97%. In the assay with TNF-α, the TNF-α % inhibition came to 90%.

`CC(C)[C@@H](NS(=O)(=O)N1CCN(c2ccc(Cl)cc2)CC1)C(=O)NO` [compound 51, N-hydroxy-2-(R)-{[4-(4-chlorophenyl)piperazine-1-sulfonyl]amino}-3-methylbutyramide] displayed an IC50 on Collagenase-III of 2.6 nM. Also, the “% protection” value was determined as 35% in assay [1] and 45% in assay [2].

Regarding `CC(C)[C@@H](NS(=O)(=O)N1CCN(c2ccc(OCc3ccccc3)cc2)CC1)C(=O)NO` [compound 74, N-hydroxy-2-(R)-{[4-(4-benzyloxyphenyl)piperazine-1-sulfonyl]amino}-3-methylbutyramide], it took 0.73 nM to reach half-maximal inhibition at Collagenase-III (IC50). The “% protection” value in assay [2] came to 46%.

As to `O=C(NO)[C@H](CSc1ccccc1)NS(=O)(=O)N1CCN(c2ccc(Cl)cn2)CC1` [compound 106, N-hydroxy-2-(R)-{[4-(5-chloropyridin-2-yl)piperazine-1-sulfonyl]amino}-3-(phenylthio)propionamide], the IC50 at Collagenase-I (37° C., pH 7.5, 2.5% DMSO; read-out: Collagenase-I IC50) amounted to 223 nM. In assay [3], the inhibition at 10 µM worked out at 41%.

The compound `CC(C)[C@@H](NS(=O)(=O)N1CCC(Oc2ccc(F)cc2)CC1)C(=O)NO` [compound 179, N-hydroxy-2-(R)-{[4-(4-fluorophenoxy)piperidine-1-sulfonyl]amino}-3-methylbutyramide] came in with a 50% inhibitory concentration (IC50) against Collagenase-III of 0.073 nM. Further, the “% protection” value in assay [2] was determined as 63%. The inhibition at 10 µM in assay [3] is < 15%.

Take `CC(C)[C@@H](NS(=O)(=O)N1CCN(c2ccc(C(F)(F)F)cn2)CC1)C(=O)NO` [compound 60]: the “% protection” value in assay [1] was 89%.

In the case of `O=C(c1ccc(Cl)cc1)C1CCN(S(=O)(=O)N2CCCC[C@@H]2C(=O)NO)CC1` [compound 242, N-hydroxy-1-[4-(4-chlorobenzoyl)piperidine-1-sulfonyl]piperidine-2-(R)-carboxamide], 0.063 nM corresponded to half-maximal inhibition against Collagenase-III (IC50). Also, in assay [1], the “% protection” value is 27%. The inhibition at 10 µM in assay [3] was found to be 85%.

For the compound `CC(C)[C@@H](NS(=O)(=O)N1CCC(Oc2ccc(Cl)cc2)CC1)C(=O)NO` [compound 59, N-hydroxy-2-(R)-{[4-(4-chlorophenoxy)piperidine-1-sulfonyl]amino}-3-methylbutyramide], it took 0.18 nM to reach half-maximal inhibition on Collagenase-III (IC50). Also, the “% protection” value worked out at 54% in assay [1] and 58% in assay [2].

Compound `CC(C)[C@@H](NS(=O)(=O)N1CCN(c2ccc(Cl)cn2)CC1)C(=O)NO` [compound 50, N-hydroxy-2-(R)-{[4-(5-chloropyridin-2-yl)piperazine-1-sulfonyl]amino}-3-methylbutyramide] displayed an IC50 on Collagenase-III of 1.3 nM. Besides, the figures for the “% protection” value in assay [1] and in assay [2] were 71% and 70%, respectively. Moreover, in assay [3], the inhibition at 10 µM was < 15%.

Take `O=C(c1ccc(Cl)cc1)C1CCN(S(=O)(=O)N2CCN(C(=O)c3cnccn3)C[C@@H]2C(=O)NO)CC1` [compound 319, N-hydroxy-1-[4-(4-chlorobenzoyl)piperidine-1-sulfonyl]-4-(1,4-pyrazin-2-yl-carbonyl)-piperazine-2-(R)-carboxamide]: in assay [3], the inhibition at 2 µM turned out to be 81%. In addition, in the assay on TNF-α, the TNF-α % inhibition worked out at 50%.

Regarding `CC(C)[C@@H](NS(=O)(=O)N1CCN(c2ccc(OCc3ccncc3)cc2)CC1)C(=O)O` [compound 413, 2-(R)-{[4-(pyridin-4-ylmethyloxyphenyl)piperazine-1-sulfonyl]amino}-3-methylbutyric acid], the IC50 at Collagenase-I (read-out: Collagenase-I IC50; 37° C., pH 7.5, 2.5% DMSO) was found to be 9300 nM.

Compound `O=C(NO)[C@H]1CCCCN1S(=O)(=O)N1CCCC1` [compound 232, N-hydroxy-1-(pyrrolidine-1-sulfonyl)piperidine-2-(R)-carboxamide] showed a TNF-α % inhibition in the assay with TNF-α of 73%.

On to `N#Cc1ccc2[nH]cc(C3CCN(S(=O)(=O)N4CCN(C(=O)N5CCOCC5)C[C@@H]4C(=O)NO)CC3)c2c1` [compound 321, N-hydroxy-4-(morpholin-4-ylcarbonyl)-1-[4-(5-cyanoindol-3-yl)piperdine-1-sulfonyl]piperazine-2-(R)-carboxamide], for which the inhibition at 2 µM in assay [3] is 93%. Besides, the TNF-α % inhibition with TNF-α is recorded as 50%.

For the compound `O=CN1CCN(S(=O)(=O)N2CCC(C(=O)c3ccc(Cl)cc3)CC2)C(C(=O)NO)C1` (racemic) [compound 262, N-hydroxy-1-[4-(4-chlorobenzoyl)piperidine-1-sulfonyl]-4-formylpiperazine-2-(RS)-carboxamide], at Collagenase-III, the midpoint of inhibition, the IC50, lay at 0.13 nM. For the same compound, the inhibition at 2 µM in assay [3] amounted to 90%. The TNF-α % inhibition in the assay with TNF-α is reported as 50%.

As a reminder, the IC50 is the concentration that inhibits the measured activity by half. As a reminder, the inhibition is the relative decrease from the control value, in per cent.
